Nine compounds from PubChem BioAssay (NCI) can be followed below.

Common to all, as to test: DTP human tumour cell line panel, 48 h
In experiment [1] the test system is DU-145 prostate.
For experiment [2], the system named is HS 578T breast.
In experiment [3] the test system is MCF7 breast.
The subject of experiment [4] is MDA-MB-231 breast.
Experiment [5] relates to MDA-MB-435.
Experiment [6] deals with NCI/ADR-RES ovarian.
In experiment [7] the test system is T-47D breast.

SMILES strings stand for the structures.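 Cultured in 96-well plates, cells were exposed to test compound for 48 hours across five concentrations. Here, GI50 denotes the concentration required for 50% inhibition of growth. TGI is the concentration that stops growth completely.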 A value given as a limit tells only on which side of the number the result lay.

A word on the GI50: it is the concentration that inhibits growth by half. In general, TGI refers to the concentration at which net growth stops. As to `COc1ccc2c(c1)C(C)Cc1c(Cl)ncnc1N2C` (stereo not given), the GI50 in experiment [1] is 3.41 µM; in experiment [2], 0.533 µM; in experiment [3], 0.328 µM; in experiment [4], 0.365 µM; in experiment [5], 0.355 µM; in experiment [6] it was 0.388 µM. Moreover, the GI50 in experiment [7] was 2.02 µM. For the same compound, the TGI in experiment [1] is more than 74.1 µM; in experiment [2] it was 38.1 µM; in experiment [3] it was more than 21.9 µM; in experiment [4], 2.35 µM; in experiment [5] it was 1.81 µM; in experiment [6], 11.2 µM. Also, the TGI in experiment [7] was found to be 20.5 µM.
In the case of `NC(=NCCCOc1ccc(Cl)cc1)Nc1ccc(C(F)(F)F)cc1`, the GI50 was 2.62 µM in experiment [1]; 3.35 µM in experiment [2]; 1.72 µM in experiment [3]; 1.73 µM in experiment [5]; 2.35 µM in experiment [6]. Also, the TGI in experiment [1] was determined as 7.26 µM; in experiment [2] it was 18.8 µM; in experiment [3], 4.85 µM; in experiment [5] it was 3.45 µM; in experiment [6], 7.27 µM.
Consider `Ic1ccc(Nc2nc3nonc3nc2Nc2ccc(I)cc2)cc1`, for which the GI50 is 0.365 µM in experiment [1]; 0.329 µM in experiment [2]; 0.225 µM in experiment [3]; 0.209 µM in experiment [4]; 0.313 µM in experiment [6]; 0.179 µM in experiment [7]. In addition, the total growth inhibition concentration (TGI) was more than 100 µM in experiment [1]; 2.21 µM in experiment [2]; more than 100 µM in experiment [3]; 0.641 µM in experiment [4]; more than 100 µM in experiment [6]; more than 91.1 µM in experiment [7].
On to `Clc1ccc2c(NCCCNc3nccc(Nc4ccc(Br)cc4)n3)ccnc2c1`, for which the GI50 was 1.86 µM in experiment [1]; 1.39 µM in experiment [3]; 1.79 µM in experiment [4]; 1.55 µM in experiment [5]; 1.79 µM in experiment [6]. Further, the TGI in experiment [1] was 3.31 µM; in experiment [3], 2.94 µM; in experiment [4], 3.47 µM; in experiment [5], 2.92 µM; in experiment [6] it was 3.42 µM.
For the compound `C=CC1CC12C(=O)C1OC2(C)C2C(=O)c3cc4ccccc4cc3C(=O)C12` (stereo not given), the GI50 in experiment [2] was 27 µM; in experiment [3], 16.1 µM; in experiment [4] it was 16 µM; in experiment [5] it was 26.3 µM; in experiment [6] it was 26.9 µM; in experiment [7], 23.1 µM. The TGI in experiment [2] was 92 µM; in experiment [3] it was more than 100 µM; in experiment [4], 46.4 µM; in experiment [5], 77.8 µM; in experiment [6], 95.4 µM; in experiment [7] it was more than 100 µM.
In the case of `CCC[CH2][Sn]([CH2]CCC)([CH2]CCC)[O]C(=O)CC`, the GI50 in experiment [1] was 0.136 µM; in experiment [2], 0.18 µM; in experiment [4], 0.144 µM; in experiment [5], 0.178 µM; in experiment [6], 0.37 µM; in experiment [7], 0.166 µM. For the same compound, the TGI in experiment [1] is 0.271 µM; in experiment [2], 0.708 µM; in experiment [4] it was 0.343 µM; in experiment [5], 0.458 µM; in experiment [6], more than 100 µM; in experiment [7] it was 0.385 µM.
Regarding `OCCN1CN(CCO)CN(c2nc(N3CN(CCO)CN(CCO)C3)nc(N3CN(CCO)CN(CCO)C3)n2)C1`, the GI50 was 3.08 ng/mL in experiment [2], 0.776 ng/mL in experiment [4], 0.867 ng/mL in experiment [6] and 1.06 ng/mL in experiment [7]. Besides, the TGI was 9.43 ng/mL in experiment [2]; 0.69 ng/mL in experiment [3]; 1.83 ng/mL in experiment [4]; 3.98 ng/mL in experiment [6]; 4.92 ng/mL in experiment [7].
Turning to `COc1ccc(N(C)c2ncnc3occ(C)c23)cc1`, the concentration for 50% growth inhibition (GI50) in experiment [1], in experiment [2], in experiment [3] and in experiment [6] was less than 0.01 µM throughout. The TGI in experiment [1] is 0.0208 µM; in experiment [2] it was less than 0.01 µM; in experiment [3], more than 100 µM; in experiment [6], more than 100 µM.
`COC(=O)c1cc2c(cc1O)[C@@H](NC(C)=O)CCc1cc(OC)c(OC)c(OC)c1-2`: the TGI in experiment [1] is more than 100 µM; in experiment [2], 0.0481 µM; in experiment [3], more than 100 µM; in experiment [4], more than 100 µM; in experiment [5] it was 1.23 µM. The GI50 in experiment [4] is 0.0542 µM; in experiment [5], less than 0.01 µM; in experiment [6] it was 0.0596 µM.
